Assay results reported in patent US20070027150A1 (priority 2005, published 2007).

biological target: His-tagged N-terminal ATP binding domain (amino acid residues 9-236) of HSP90α (Homo sapiens, UniProt P07900); assay: HSP90 inhibitor binding potency: TRF competition binding assay; conditions: Table I; read-out: Hsp90 IC50 Range
Method: HSP90 Inhibitor Binding Potency: TRF Binding Assay
In this example, the binding potency of HSP90 inhibitors as measured by a TRF binding assay is described.
TRF competition binding assays were performed to determine the binding potency (IC50 values) of HSP90 inhibitors. Purified His-tagged N-terminal ATP binding domain (amino acid residues 9-236) of HSP90α (HSP90α GeneID: 3320; mRNA Sequence NM_005348) was incubated for two hours at room temperature in binding buffer (50 mM HEPES, 6 mM MgCl2, 20 mM KCl and 0.1% BSA) with biotinylated radicicol and progressively higher concentrations of the competing compounds. A fraction of the mixture was transferred to capture plates (coated with streptavidin) and incubated for one hour at room temperature. After washing with DELFIA wash buffer, europium-labeled anti-his antibody was added and incubated for two hours at room temperature, followed by washing with DELFIA buffer. DELFIA enhancement solution was then added. After gentle shaking for 10 minutes, the plates were read in VICTOR for europium counts.

| SMILES | IC50 [nM] |
| --- | --- |
| Cc1nc(N)nc2c1C(=O)CC(c1c(OCCN3CCOCC3)cccc1-c1cccnc1F)C2 (stereo not drawn) [Compound 157, 2-amino-7-[2-(2-fluoro-pyridin-3-yl)-6-(2-morpholin-4-yl-ethoxy)-phenyl]-4-methyl-7,8-dihydro-6H-quinazolin-5-one] | < 1000 |
| Cc1nc(N)nc2c1C(=O)CC(c1ccccc1-c1cccc3cc[nH]c13)C2 (stereo not drawn) [Compound 129, 2-amino-7-[2-(1H-indol-7-yl)phenyl]-4-methyl-7,8-dihydroquinazolin-5(6H)-one] | < 1000 |
| CC(=O)Nc1cccc(-c2ccccc2C2CC(=O)c3c(C)nc(N)nc3C2)c1 (stereo not drawn) [Compound 102, N-[2′-(2-amino-4-methyl-5-oxo-5,6,7,8-tetrahydroquinazolin-7-yl)-1,1′-biphenyl-3-yl]acetamide] | 1000 to 10000 |
| Cc1nc(N)nc2c1C(=O)CC(c1c(C3CCCCC3)cnn1C)C2 (stereo not drawn) [Compound 48, 2-amino-7-(4-cyclohexyl-2-methyl-2H-pyrazol-3-yl)-4-methyl-7,8-dihydro-6H-quinazolin-5-one] | < 1000 |
| COc1ccc(-c2cccnc2F)c(C2CC(=O)c3c(C)nc(N)nc3C2)c1 (stereo not drawn) [Compound 98, 2-amino-7-[2-(2-fluoropyridin-3-yl)-5-methoxyphenyl]-4-methyl-7,8-dihydroquinazolin-5(6H)-one] | < 1000 |
| Cc1nc(N)nc2c1C(=O)CC(c1cccc(Br)c1)C2 (stereo not drawn) [Compound 7, 2-amino-7-(3-bromophenyl)-4-methyl-7,8-dihydroquinazolin-5(6H)-one] | 1000 to 10000 |
| Cc1nc(N)nc2c1C(=O)CC(c1ccccc1-c1ccccc1OC(F)(F)F)C2 (stereo not drawn) [Compound 111, 2-amino-4-methyl-7-[2′-(trifluoromethoxy)-1,1′-biphenyl-2-yl]-7,8-dihydroquinazolin-5(6H)-one] | < 1000 |
| Cc1nc(N)nc2c1C(=O)CC(c1ccccc1Oc1ncccn1)C2 (stereo not drawn) [Compound 144, 2-amino-4-methyl-7-[2-(pyrimidin-2-yloxy)phenyl]-7,8-dihydroquinazolin-5(6H)-one] | 1000 to 10000 |
| Cc1nc(N)nc2c1C(=O)CC(c1ccccc1Cc1ccccc1)C2 (stereo not drawn) [Compound 14, 2-amino-7-(2-benzyl-phenyl)-4-methyl-7,8-dihydro-6H-quinazolin-5-one] | < 1000 |
| COc1cccc(C2=CCCCC2)c1C1CC(=O)c2c(C)nc(N)nc2C1 (stereo not drawn) [Compound 78, 2-amino-7-(2-cyclohex-1-en-1-yl-6-methoxyphenyl)-4-methyl-7,8-dihydroquinazolin-5(6H)-one] | < 1000 |
| COc1cccc(-c2cccc(OC)c2C2CC(=O)c3c(C)nc(N)nc3C2)n1 (stereo not drawn) [Compound 132, 2-amino-7-[2-methoxy-6-(6-methoxy-pyridin-2-yl)-phenyl]-4-methyl-7,8-dihydro-6H-quinazolin-5-one] | < 1000 |
| Cc1cccc(C2CC(=O)c3c(C)nc(N)nc3C2)c1-c1cccnc1F (stereo not drawn) [Compound 19, 2-amino-7-[2-(2-fluoropyridin-3-yl)-3-methylphenyl]-4-methyl-7,8-dihydroquinazolin-5(6H)-one] | 1000 to 10000 |
| Cc1nc(N)nc2c1C(=O)CC(c1ccccc1Oc1ccc(F)cc1)C2 (stereo not drawn) [Compound 139, 2-amino-7-[2-(4-fluorophenoxy)phenyl]-4-methyl-7,8-dihydroquinazolin-5(6H)-one] | 1000 to 10000 |
| COc1ccnc(-c2ccccc2C2CC(=O)c3c(C)nc(N)nc3C2)c1 (stereo not drawn) [Compound 125, 2-amino-7-[2-(4-methoxy-pyridin-2-yl)-phenyl]-4-methyl-7,8-dihydro-6H-quinazolin-5-one] | < 1000 |
| Cc1nc(N)nc2c1C(=O)CC(c1ccc(F)cc1-c1cncnc1)C2 (stereo not drawn) [Compound 60, 2-amino-7-(4-fluoro-2-pyrimidin-5-yl-phenyl)-4-methyl-7,8-dihydro-6H-quinazolin-5-one] | < 1000 |
| Cc1nc(N)nc2c1C(=O)CC(c1ccccc1Oc1cccc(F)n1)C2 (stereo not drawn) [Compound 145, 2-amino-7-{2-[(6-fluoropyridin-2-yl)oxy]phenyl}-4-methyl-7,8-dihydroquinazolin-5(6H)-one] | < 1000 |
| Cc1nc(N)nc2c1C(=O)CC(c1ccccc1Oc1cc[nH]c(=O)c1)C2 (stereo not drawn) [Compound 167, 2-amino-4-methyl-7-[2-(2-oxo-1,2-dihydro-pyridin-4-yloxy)-phenyl]-7,8-dihydro-6H-quinazolin-5-one] | 1000 to 10000 |

same assay, conditions: Table II; read-out: Hsp90 IC50 Range

| SMILES | IC50 [nM] |
| --- | --- |
| COc1cccc(-c2ccc(F)cc2C2CC(=O)c3c(C)nc(N)nc3C2)n1 (stereo not drawn) [Compound 283, 2-amino-7-[5-fluoro-2-(6-methoxy-pyridin-2-yl)-phenyl]-4-methyl-7,8-dihydro-6H-quinazolin-5-one] | < 1000 |
| CCc1cc(-n2ccnc2C2CC(=O)c3c(C)nc(N)nc3C2)ccc1C (stereo not drawn) [Compound 333, 2-amino-7-[1-(3-ethyl-4-methyl-phenyl)-1H-imidazol-2-yl]-4-methyl-7,8-dihydro-6H-quinazolin-5-one] | 1000 to 10000 |
| Cc1nc(N)nc2c1C(=O)CC(c1nccn1-c1ccccc1F)C2 (stereo not drawn) [Compound 188, 2-amino-7-[1-(2-fluoro-phenyl)-1H-imidazol-2-yl]-4-methyl-7,8-dihydro-6H-quinazolin-5-one] | < 1000 |
| COc1ccccc1-n1ccnc1C1CC(=O)c2c(C)nc(N)nc2C1 (stereo not drawn) [Compound 194, 2-amino-7-[1-(2-methoxy-phenyl)-1H-imidazol-2-yl]-4-methyl-7,8-dihydro-6H-quinazolin-5-one] | < 1000 |
| COc1cnc(-c2cc(F)ccc2C2CC(=O)c3c(C)nc(N)nc3C2)nc1OC (stereo not drawn) [Compound 276, 2-amino-7-[2-(4,5-dimethoxy-pyrimidin-2-yl)-4-fluoro-phenyl]-4-methyl-7,8-dihydro-6H-quinazolin-5-one] | < 1000 |
| CCOc1ncncc1-c1cc(F)ccc1C1CC(=O)c2c(C)nc(N)nc2C1 (stereo not drawn) [Compound 282, 2-amino-7-[2-(4-ethoxy-pyrimidin-5-yl)-4-fluoro-phenyl]-4-methyl-7,8-dihydro-6H-quinazolin-5-one] | < 1000 |
| COc1cc(-n2ccnc2C2CC(=O)c3c(C)nc(N)nc3C2)c(OC)cc1Cl (stereo not drawn) [Compound 327, 2-amino-7-[1-(4-chloro-2,5-dimethoxy-phenyl)-1H-imidazol-2-yl]-4-methyl-7,8-dihydro-6H-quinazolin-5-one] | < 1000 |
| Cc1nc(N)nc2c1C(=O)CC(c1ccc(Cl)cc1-c1cncnc1)C2 (stereo not drawn) [Compound 250, 2-amino-7-(4-chloro-2-pyrimidin-5-yl-phenyl)-4-methyl-7,8-dihydro-6H-quinazolin-5-one] | < 1000 |
| COc1cccc(-n2ccnc2C2CC(=O)c3c(C)nc(N)nc3C2)n1 (stereo not drawn) [Compound 193, 2-amino-7-[1-(6-methoxy-pyridin-2-yl)-1H-imidazol-2-yl]-4-methyl-7,8-dihydro-6H-quinazolin-5-one] | < 1000 |
| COc1nc(-c2cc(F)ccc2[C@@H]2CC(=O)c3c(C)nc(N)nc3C2)c(C)nc1N [Compound 337, (S)-2-amino-7-[2-(5-amino-6-methoxy-3-methyl-pyrazin-2-yl)-4-fluoro-phenyl]-4-methyl-7,8-dihydro-6H-quinazolin-5-one] | < 1000 |
| Cc1nc(N)nc2c1C(=O)CC(c1ccccc1S(=O)(=O)N(C)C(C)C)C2 (stereo not drawn) [Compound 185, 2-(2-amino-4-methyl-5-oxo-5,6,7,8-tetrahydro-quinazolin-7-yl)-N-isopropyl-N-methyl-benzenesulfonamide] | 1000 to 10000 |
| COc1nc(-c2cc(F)ccc2[C@H]2CC(=O)c3c(C)nc(N)nc3C2)ncc1C [Compound 274, (R)-2-amino-7-[4-fluoro-2-(4-methoxy-5-methyl-pyrimidin-2-yl)-phenyl]-4-methyl-7,8-dihydro-6H-quinazolin-5-one] | < 1000 |
| COc1ncc(-c2cc(F)ccc2[C@@H]2CC(=O)c3c(C)nc(N)nc3C2)nc1OC [Compound 323, (S)-2-amino-7-[2-(5,6-dimethoxy-pyrazin-2-yl)-4-fluoro-phenyl]-4-methyl-7,8-dihydro-6H-quinazolin-5-one] | < 1000 |
| COc1cccc(-n2ccnc2[C@H]2CC(=O)c3c(C)nc(N)nc3C2)n1 [Compound 203, (R)-2-amino-7-[1-(6-methoxy-pyridin-2-yl)-1H-imidazol-2-yl]-4-methyl-7,8-dihydro-6H-quinazolin-5-one] | 1000 to 10000 |
| COc1nc(-c2cc(F)ccc2[C@@H]2CC(=O)c3c(C)nc(N)nc3C2)ncc1C [Compound 275, (S)-2-amino-7-[4-fluoro-2-(4-methoxy-5-methyl-pyrimidin-2-yl)-phenyl]-4-methyl-7,8-dihydro-6H-quinazolin-5-one] | < 1000 |
| COc1ccc(-c2cncc(OC)n2)c(C2CC(=O)c3c(C)nc(N)nc3C2)c1 (stereo not drawn) [Compound 254, 2-amino-7-[5-methoxy-2-(6-methoxy-pyrazin-2-yl)-phenyl]-4-methyl-7,8-dihydro-6H-quinazolin-5-one] | < 1000 |
| COc1cccc(-c2ccccc2C2CC(=O)c3cnc(N)nc3C2)n1 (stereo not drawn) [Compound 246, 2-amino-7-[2-(6-methoxy-pyridin-2-yl)-phenyl]-7,8-dihydro-6H-quinazolin-5-one] | < 1000 |
| Cc1cnc(C)c(-c2cc(F)ccc2C2CC(=O)c3c(C)nc(N)nc3C2)n1 (stereo not drawn) [Compound 227, 2-amino-7-[2-(3,6-dimethyl-pyrazin-2-yl)-4-fluoro-phenyl]-4-methyl-7,8-dihydro-6H-quinazolin-5-one] | 1000 to 10000 |
| COc1cncc(-c2cccc(F)c2C2CC(=O)c3c(C)nc(N)nc3C2)n1 (stereo not drawn) [Compound 240, 2-amino-7-[2-fluoro-6-(6-methoxy-pyrazin-2-yl)-phenyl]-4-methyl-7,8-dihydro-6H-quinazolin-5-one] | 1000 to 10000 |
